Seven molecules from patent US20260217764A1, “SELECTIVE INHIBITORS OF C. ACNES HYALURONIDASE” (priority 2022, published 2026) can be followed below.

Square brackets hold non-standard residues; d marks the D form. Ends that are not written are not given here. Peptide text beside a SMILES is read from it.

Usually Kd stands for the free concentration of one partner at which half of the binding sites on the other are occupied at equilibrium, for simple one-to-one binding. As a reminder, the EC50 (read off the curve) is the concentration that produces a half-maximal response.

Assay [1] deals with T1, HylA (Cutibacterium acnes, UniProt A0A2B7ICX0).
T1 construct: HylA (41-805) were cloned into; His6 (N); MBP (N); made in house; host or cells: E. coli BL21(DE3) pLysS
Put plainly: Microscale thermophoresis (MST) measurement of HylA binding to peptide inhibitors. On the set-up: species or system C. acnes. The method, then: The Monolith NT.115 instrument (Nanotemper Technologies, München, Germany) was used to measure the binding of peptide inhibitors to the HylA. For the MST experiment, the HylA is fluorescently labeled by cysteine labeling by using the Monolith protein labeling kit RED-MALEIMIDE 2nd generation (Catalog Number: L014). The assay is performed in 100 mM Sodium acetate buffer pH 5.3 supplied with 0.05% Tween-20. A serial dilution of the 1932 peptide (50 μM through 1.5 nM) was titrated against 30 nM fluorescent labeled HylA. For the titration, 10 μL of each concentration of the peptide was mixed with 10 μL of the fluorescent labeled HylA. The MST measurement settings include medium MST power, 40% excitation power, Nano-RED excitation type and 25° C. thermostat temperature. Affinity of the peptide binding to HylA was determined by the MO.Affinity Analysis Software (Nanotemper Technologies, München, Germany).
On the technique in general: Microscale thermophoresis detects binding through changes in fluorescence in a small temperature gradient.

The subject of assay [2] is HL043PA1 strain. Nature of the assay: Mouse acne model, inhibitor co-injected i.d. with acne-associated HL043PA1 strain. The format is in vivo, C. acnes. The following applies: CD1 mice, 10 μg inhibitor co-injected i.d. with 2×10^7 CFU HL043PA1, disease score and skin cytokines 24 hr post-infection. As for the experimental part:
To model human acne disease, 8 weeks-old mice were i.d. infected with C. acnes strains (2×10^7 CFU in 50 μl volume of BHI media), followed by the topical application of synthetic sebum daily as described previously. i.d. infections were performed under vaporized Isoflurane (Fluriso, Vet One) anesthesia. Synthetic sebum was made by mixing fatty acid (17% oleic acid; Catalog no. #01008, Millipore Sigma), triglyceride (45% triolein; Catalog no. #ICN10312201, FisherScientific), wax monoester (25% jojoba oil, Trader Joe), and squalene (13%; Catalog no. #AC215351000, FisherScientific). One or two days after infection, disease score was assessed and the mice were euthanized by C02. Skin lesions were aseptically excised and harvested in phosphate buffer saline (PBS, pH 7.4). […]
Gross skin pathology was scored based on tabulation of the following: Erythematous change (no=0, mild=1, moderate 2, and marked=3); papule (flat=0, small=1, large=2. And extra-large=3) based on a protocol modified from.
For in vivo experiments, inhibitors (10 μg) were injected along with C. acnes strains (2×10^7 CFU) i.d. into CD1 mice, followed by the topical application of sebum. After 24 hr, bacterial count (CFU/ml), size of the skin lesions and proinflammatory cytokines (IL-1β, IL-6 and TNF-α) in skin lesions were measured. […]

For assay [3], the target named is T2, rHylA (Cutibacterium acnes, UniProt A0A2B7ICX0).
T2 construct: HylA (41-805) were cloned into; His6 (N); MBP (N); made in house; host or cells: E. coli BL21(DE3) pLysS
Nature of the assay: HA digested with rHylA in presence of inhibitor, digest applied to HaCaT cells, IL-6 by ELISA. Type of assay: cell-based, C. acnes. The conditions noted are these: inhibitor 5 or 10 μM, HA 2 mg/ml digested with rHylA 24 hr, IL-6 in HaCaT culture supernatant. The method, then: HaCaT cells (ATCC) were cultured in complete DMEM media (Catalog no. 10-013-CV, Corning incorporated, USA) plus 10% heat-inactivated FBS in 5% C02 at 37° C. Before cell stimulation with digested HA (40 μg), HaCaT cells were seeded in 96-wells Falcon® 96-well tissue culture plate (Catalog no. #353072, corning incorporated, USA) at a concentration of 10^5 cells/ml and incubated in 5% CO2 at 37° C. for 6 hr, followed by washing with DMEM media and cell stimulation.
For BMDMs and HaCaT cell assays, an equivalent of 40 μg of HA digest was used to stimulate 10^5 cells for 8 and 16 hr, respectively. Cells were plated in a Falcon® 96-well tissue culture plate and cultured in 200 μl of complete RPMI medium supplemented with 10% FBS and 1× penicillin-streptomycin antibiotics solution. […]
IL-1β, IL-6, and TNF-α cytokine levels in skin homogenates, previously stored at −80° C., were measured by a solid-phase sandwich ELISA using commercially available mouse cytokine ELISA kits (Biolegend, San Diego, CA, USA). […] The plates were developed and read at optical density (OD) of 450 nm with a wavelength correction set to 570 nm in a multimode microplate reader (PerkinElmer, Waltham, MA, USA). […]
A general note: In an ELISA, binding on a coated surface is turned into a signal by an enzyme label.

For assay [4], the target named is C. acnes hyaluronidase HylA, recombinant (rHylA), fluorescently labeled (C. acnes). Nature of the assay: Microscale thermophoresis (MST), peptide titrated against fluorescent labeled HylA.
Assay [5] shares this target. Nature of the assay: not given; MST against fluorescent labeled HylA per the methods.
In assay [6] the target is T3, C. acnes hyaluronidase HylA, recombinant (rHylA), fluorescently labeled (C. acnes, UniProt A0A2B7ICX0 41-805, Fluorescently labelled on cysteine(s) with the RED-MALEIMIDE 2nd generation dye. Which cysteine carries the dye is not stated.).
T3 construct: TEV cleavage is described only for the crystallization preparation; not shown: N-terminal His6-MBP-TEV tag from the pET His6 MBP TEV LIC vector
T3 sequence: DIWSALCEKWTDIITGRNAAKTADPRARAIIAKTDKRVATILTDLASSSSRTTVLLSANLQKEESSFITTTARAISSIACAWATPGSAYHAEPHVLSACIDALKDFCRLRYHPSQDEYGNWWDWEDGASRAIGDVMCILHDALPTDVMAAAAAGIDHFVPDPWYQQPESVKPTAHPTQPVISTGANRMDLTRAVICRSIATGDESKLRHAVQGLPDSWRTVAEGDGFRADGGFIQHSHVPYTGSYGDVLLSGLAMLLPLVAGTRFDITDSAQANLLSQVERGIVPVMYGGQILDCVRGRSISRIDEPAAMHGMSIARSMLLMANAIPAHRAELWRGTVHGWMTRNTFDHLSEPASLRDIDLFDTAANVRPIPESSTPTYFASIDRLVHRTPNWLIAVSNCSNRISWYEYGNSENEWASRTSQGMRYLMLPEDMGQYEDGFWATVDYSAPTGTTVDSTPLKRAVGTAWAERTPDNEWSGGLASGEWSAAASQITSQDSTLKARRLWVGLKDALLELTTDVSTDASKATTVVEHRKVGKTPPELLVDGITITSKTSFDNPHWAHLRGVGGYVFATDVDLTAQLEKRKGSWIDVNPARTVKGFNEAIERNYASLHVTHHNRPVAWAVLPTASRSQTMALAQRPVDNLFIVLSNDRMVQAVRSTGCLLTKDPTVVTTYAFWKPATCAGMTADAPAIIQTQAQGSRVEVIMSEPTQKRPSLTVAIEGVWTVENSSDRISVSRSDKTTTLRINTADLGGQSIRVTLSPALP
The description is as above.

Assay [7] concerns the target T3, C. acnes hyaluronidase HylA, …. Put plainly: microscale thermophoresis (MST), peptide titrated against fluorescently labeled HylA, Kd model fit, mean +/- SD of triplicates.
The target is the same in assay [8]. Put plainly: Microscale thermophoresis (MST), peptide titrated against fluorescent labeled HylA.
Where [9] appears, read: binding constant (KD), MST, peptide titrated against 30 nM fluorescent labeled HylA, values in running text and figure legend.

With `NC(=O)[C@@H](CCC(=O)O)NC(=O)[C@H](CO)NC(=O)[C@@H](CCC(=O)O)NC(=O)[C@H](Cc1ccc(O)cc1)NC(=O)[C@@H](CCC(=O)O)NC(=O)[C@H](CC(=O)O)NC(=O)[C@@H](N)Cc1ccc(O)cc1` [i93, Tyr-Asp-dGlu-Tyr-dGlu-Ser-dGlu-NH2] (H-YD[dE]Y[dE]S[dE]-NH2; N-terminus assumed), the Kd in assay [1] (KD, table Peptides' properties) stood at 140 µM; in assay [1] (setting [9]) it was 911 µM.
As to `N[C@@H](Cc1ccc(O)cc1)C(=O)N[C@@H](CC(=O)O)C(=O)N[C@H](CCC(=O)O)C(=O)N[C@@H](Cc1ccc(O)cc1)C(=O)N[C@H](CCC(=O)O)C(=O)N[C@@H](CO)C(=O)N[C@H](CCC(=O)O)C(=O)O` [i94, Tyr-Asp-dGlu-Tyr-dGlu-Ser-dGlu-OH] (H-YD[dE]Y[dE]S[dE]-OH; N-terminus assumed), the Kd in assay [1] (KD, table Peptides' properties) worked out at 4.3 µM.
For `NC(=O)[C@@H](CCC(=O)O)NC(=O)[C@H](CO)NC(=O)[C@H](CC(=O)O)NC(=O)[C@H](Cc1ccc(O)cc1)NC(=O)[C@@H](CCC(=O)O)NC(=O)[C@H](CC(=O)O)NC(=O)[C@H](Cc1ccc(O)cc1)NC(=O)[C@@H](CCC(=O)O)NC(=O)[C@H](CO)NC(=O)[C@@H](CCC(=O)O)NC(=O)[C@H](Cc1ccc(O)cc1)NC(=O)[C@@H](CCC(=O)O)NC(=O)[C@H](CC(=O)O)NC(=O)[C@@H](N)Cc1ccc(O)cc1` [i932, Tyr-Asp-dGlu-Tyr-dGlu-Ser-dGlu-Tyr-Asp-dGlu-Tyr-Asp-Ser-dGlu-NH2] (H-YD[dE]Y[dE]S[dE]YD[dE]YDS[dE]-NH2; N-terminus assumed), in assay [2], the efficacy in vivo entry is on record as “highest efficacy”. Moreover, the Kd in assay [1] (setting [9]) was 3.06 µM; in assay [1] (binding constant (KD), MST, peptide titrated against fluorescent labeled HylA, value) it was 0.0216 µM. Besides, the efficacy in vitro result in assay [3] was “highest efficacy”.
With “peptide i93, Tyr-Asp-dGlu-Tyr-dGlu-Ser-dGlu-NH2”, the Kd amounted to 912 µM in assay [4] and 140 µM in assay [5].
As to “peptide i94, Tyr-Asp-dGlu-Tyr-dGlu-Ser-dGlu-OH”, the Kd in assay [5] worked out at 4.3 µM.

B1: peptide i932, Tyr-Asp-dGlu-Tyr-dGlu-Ser-dGlu-Tyr-Asp-dGlu-Tyr-Asp-Ser-dGlu-NH2 (peptide)
peptide: YD[dE]Y[dE]S[dE]YD[dE]YDS[dE]-NH2
modifications: N-terminus assumed
SMILES: NC(=O)[C@@H](CCC(=O)O)NC(=O)[C@H](CO)NC(=O)[C@H](CC(=O)O)NC(=O)[C@H](Cc1ccc(O)cc1)NC(=O)[C@@H](CCC(=O)O)NC(=O)[C@H](CC(=O)O)NC(=O)[C@H](Cc1ccc(O)cc1)NC(=O)[C@@H](CCC(=O)O)NC(=O)[C@H](CO)NC(=O)[C@@H](CCC(=O)O)NC(=O)[C@H](Cc1ccc(O)cc1)NC(=O)[C@@H](CCC(=O)O)NC(=O)[C@H](CC(=O)O)NC(=O)[C@@H](N)Cc1ccc(O)cc1
notes: Designed by structure-based virtual screening against the HylA crystal structure; also called 1932
As to B1, in assay [6], the Kd stood at 3.1 µM.
As to YCD[dE]Y[dE]S[dE]CY-NH2 (also: cyclic peptide with Cys2 and Cys9, mode of cyclization not given here, also called 1933) [peptide i933, Tyr-Cys-Asp-dGlu-Tyr-dGlu-Ser-dGlu-Cys-Tyr-NH2], the Kd came to 292 µM in assay [6] and 1.76 µM in assay [8]. Moreover, the “EC50 (read off the curve)” value in assay [7] was roughly 2 µM.
